Source: US20140155376A1, “PYRROLOPYRAZINE KINASE INHIBITORS” (Hoffmann-La Roche Inc., priority 2010, published 2014)

Molecular target: T1, JAK3 (recombinant human kinase domain; h-jak3(810-1124)) (Homo sapiens, UniProt P52333)
T1 construct: h-jak3(810- 1124)-sf9-c; made in house; host or cells: Sf9 insect cells
Assay: Determination of IC50 of Janus Kinase (JAK) inhibition: JAK3, radioactive end-point assay with 33P-ATP
Assay type: biochemical
Details: JAK3 kinase domain; ATP 1.5 uM, peptide 50 uM, 20 minutes, room temperature, 10% DMSO; read-out: Ic50 h-jak3(810-1124)-sf9-c:no additive

T1 sequence (P52333 810-1124): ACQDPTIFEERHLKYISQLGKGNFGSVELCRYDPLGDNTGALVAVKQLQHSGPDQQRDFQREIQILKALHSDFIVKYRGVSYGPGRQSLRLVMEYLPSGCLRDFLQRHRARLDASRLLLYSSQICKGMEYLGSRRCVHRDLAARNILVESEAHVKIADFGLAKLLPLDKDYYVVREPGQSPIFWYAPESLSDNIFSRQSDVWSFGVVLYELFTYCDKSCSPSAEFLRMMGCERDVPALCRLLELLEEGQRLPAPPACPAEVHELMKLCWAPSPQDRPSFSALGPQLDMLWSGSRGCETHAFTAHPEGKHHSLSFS

Compound	IC50
CC(CN(C)C)NC(=O)c1c[nH]c2ncc(C3CC3)nc12 (stereo not drawn) [Example I-27, 2-Cyclopropyl-5H-pyrrolo[2,3-b]pyrazine-7-carboxylic acid (2-dimethylamino-1-methyl-ethyl)-amide]	934 nM
CC(C)(CO)CNC(=O)c1c[nH]c2ncc(Nc3ccccc3)nc12 [Example I-15, 2-Phenylamino-5H-pyrrolo[2,3-b]pyrazine-7-carboxylic acid (3-hydroxy-2,2-dimethyl-propyl)-amide]	7.49 nM
C[C@H](NC(=O)c1c[nH]c2ncc(-c3ccc(C(=O)NC(C)(C)C)s3)nc12)C(C)(C)C [Example I-157, 2-(5-tert-Butylcarbamoyl-thiophen-2-yl)-5H-pyrrolo[2,3-b]pyrazine-7-carboxylic acid ((S)-1,2,2-trimethyl-propyl)-amide]	0.43 nM
CC(O)CCNC(=O)c1c[nH]c2ncc(C3CC3)nc12 (stereo not drawn) [Example I-68, 2-Cyclopropyl-5H-pyrrolo[2,3-b]pyrazine-7-carboxylic acid (3-hydroxy-butyl)-amide]	358 nM
CC(C)(O)[C@@H](NC(=O)c1c[nH]c2ncc(C3CC3)nc12)C1CCCCC1 [Example I-94, 2-Cyclopropyl-5H-pyrrolo[2,3-b]pyrazine-7-carboxylic acid ((S)-1-cyclohexyl-2-hydroxy-2-methyl-propyl)-amide]	878 nM
C[C@H](NC(=O)c1c[nH]c2ncc(C3CC3)nc12)C1CCCCC1 [Example I-32, 2-Cyclopropyl-5H-pyrrolo[2,3-b]pyrazine-7-carboxylic acid ((S)-1-cyclohexyl-ethyl)-amide]	20.1 nM
CC[C@@](C)(O)[C@H](C)NC(=O)c1c[nH]c2ncc(C3CC3)nc12 [Example I-34, 2-Cyclopropyl-5H-pyrrolo[2,3-b]pyrazine-7-carboxylic acid ((1S,2R)-2-hydroxy-1,2-dimethyl-butyl)-amide]	36.4 nM
C[C@H](NC(=O)c1c[nH]c2ncc(C3CC3)nc12)C1(C#N)CCCC1 [Example I-101, 2-Cyclopropyl-5H-pyrrolo[2,3-b]pyrazine-7-carboxylic acid [(S)-1-(1-cyano-cyclopentyl)-ethyl]-amide]	12 nM
N#CCC(NC(=O)c1c[nH]c2ncc(C3CC3)nc12)C1CC1 (stereo not drawn) [Example I-106, 2-Cyclopropyl-5H-pyrrolo[2,3-b]pyrazine-7-carboxylic acid (2-cyano-1-cyclopropyl-ethyl)-amide]	14.7 nM
C[C@H](NC(=O)c1c[nH]c2ncc(-c3ccc(C(=O)NC4CCS(=O)(=O)CC4)s3)nc12)C(C)(C)C [Example I-212, 2-[5-(1,1-Dioxo-hexahydro-1λ^6-thiopyran-4-ylcarbamoyl)-thiophen-2-yl]-5H-pyrrolo[2,3-b]pyrazine-7-carboxylic acid ((S)-1,2,2-trimethyl-propyl)-amide]	0.16 nM
CCNC(=O)c1c[nH]c2ncc(Oc3cccc(OC(F)(F)F)c3)nc12 [Example I-246, 2-(3-Trifluoromethoxy-phenoxy)-5H-pyrrolo[2,3-b]pyrazine-7-carboxylic acid ethylamide]	3460 nM
C[C@H](NC(=O)c1c[nH]c2ncc(-c3ccc(C(=O)NCc4ccccc4)s3)nc12)C(C)(C)C [Example I-226, 2-(5-Benzylcarbamoyl-thiophen-2-yl)-5H-pyrrolo[2,3-b]pyrazine-7-carboxylic acid ((S)-1,2,2-trimethyl-propyl)-amide]	0.5 nM
CCNC(=O)c1c[nH]c2ncc(Oc3cccc(C#N)c3)nc12 [Example I-245, 2-(3-Cyano-phenoxy)-5H-pyrrolo[2,3-b]pyrazine-7-carboxylic acid ethylamide]	3310 nM
C[C@H](NC(=O)c1c[nH]c2ncc(-c3ccc(C(=O)N4CC(C(N)=O)C4)s3)nc12)C(C)(C)C [Example I-179, 2-[5-(3-Carbamoyl-azetidine-1-carbonyl)-thiophen-2-yl]-5H-pyrrolo[2,3-b]pyrazine-7-carboxylic acid ((S)-1,2,2-trimethyl-propyl)-amide]	0.32 nM
C[C@H]1C[C@H]1c1cnc2[nH]cc(C(=O)NCC(C)(C)CO)c2n1 [Example I-46, 2-((1R,2S)-2-Methyl-cyclopropyl)-5H-pyrrolo[2,3-b]pyrazine-7-carboxylic acid (3-hydroxy-2,2-dimethyl-propyl)-amide]	228 nM
C[C@H](NC(=O)c1c[nH]c2ncc(-c3ccc(C(=O)NCc4ccncc4)s3)nc12)C(C)(C)C [Example I-165, 2-{5-[(Pyridin-4-ylmethyl)-carbamoyl]-thiophen-2-yl}-5H-pyrrolo[2,3-b]pyrazine-7-carboxylic acid ((S)-1,2,2-trimethyl-propyl)-amide]	0.17 nM
CCNC(=O)c1c[nH]c2ncc(Oc3cccc(C(F)(F)F)c3)nc12 [Example I-251, 2-(3-Trifluoromethyl-phenoxy)-5H-pyrrolo[2,3-b]pyrazine-7-carboxylic acid ethylamide]	4030 nM

Compound	IC50
C[C@H](NC(=O)c1c[nH]c2ncc(-c3ccc(C(=O)NCCS(N)(=O)=O)s3)nc12)C(C)(C)C [Example I-173, 2-[5-(2-Sulfamoyl-ethylcarbamoyl)-thiophen-2-yl]-5H-pyrrolo[2,3-b]pyrazine-7-carboxylic acid ((S)-1,2,2-trimethyl-propyl)-amide]	0.2 nM
C[C@H](NC(=O)c1c[nH]c2ncc(-c3ccc(C(=O)NC4CCOCC4)s3)nc12)C(C)(C)C [Example I-225, 2-[5-(Tetrahydro-pyran-4-ylcarbamoyl)-thiophen-2-yl]-5H-pyrrolo[2,3-b]pyrazine-7-carboxylic acid ((S)-1,2,2-trimethyl-propyl)-amide]	0.19 nM
CCn1cc(-c2cnc3[nH]cc(C(=O)N[C@@H](C)C4(O)CCCC4)c3n2)cn1 [Example I-138, 2-(1-Ethyl-1H-pyrazol-4-yl)-5H-pyrrolo[2,3-b]pyrazine-7-carboxylic acid [(S)-1-(1-hydroxy-cyclopentyl)-ethyl]-amide]	5.01 nM
C[C@H](NC(=O)c1c[nH]c2ncc(C3CC3)nc12)C1(C#N)CCCCC1 [Example I-118, 2-Cyclopropyl-5H-pyrrolo[2,3-b]pyrazine-7-carboxylic acid [(S)-1-(1-cyano-cyclohexyl)-ethyl]-amide]	150 nM
Cc1cccc(-n2cnc(-c3cnc4[nH]cc(C(=O)N[C@@H](C)C(C)(C)C)c4n3)c2)c1 [Example I-150, 2-(1-m-Tolyl-1H-imidazol-4-yl)-5H-pyrrolo[2,3-b]pyrazine-7-carboxylic acid ((S)-1,2,2-trimethyl-propyl)-amide]	5.12 nM
CC(C)NC(=O)c1c[nH]c2ncc(Oc3ccc4c(c3)CCCC4)nc12 [Example I-240, 2-(5,6,7,8-Tetrahydro-naphthalen-2-yloxy)-5H-pyrrolo[2,3-b]pyrazine-7-carboxylic acid isopropylamide]	315 nM
CC(Cn1ccnc1)NC(=O)c1ccc(-c2cnc3[nH]cc(C(=O)N[C@@H](C)C(C)(C)C)c3n2)s1 (stereo partly drawn) [Example I-174, 2-[5-(2-Imidazol-1-yl-1-methyl-ethylcarbamoyl)-thiophen-2-yl]-5H-pyrrolo[2,3-b]pyrazine-7-carboxylic acid ((S)-1,2,2-trimethyl-propyl)-amide]	0.22 nM
C[C@H](NC(=O)c1c[nH]c2ncc(-c3ccc(C(=O)N4CCN(C)CC4)s3)nc12)C(C)(C)C [Example I-161, 2-[5-(4-Methyl-piperazine-1-carbonyl)-thiophen-2-yl]-5H-pyrrolo[2,3-b]pyrazine-7-carboxylic acid ((S)-1,2,2-trimethyl-propyl)-amide]	0.32 nM
Cc1ccccc1CNC(=O)c1ccc(-c2cnc3[nH]cc(C(=O)N[C@@H](C)C(C)(C)C)c3n2)s1 [Example I-187, 2-[5-(2-Methyl-benzylcarbamoyl)-thiophen-2-yl]-5H-pyrrolo[2,3-b]pyrazine-7-carboxylic acid ((S)-1,2,2-trimethyl-propyl)-amide]	0.46 nM
C[C@H](NC(=O)c1c[nH]c2ncc(-c3cccs3)nc12)C(C)(C)O [Example I-18, 2-Thiophen-2-yl-5H-pyrrolo[2,3-b]pyrazine-7-carboxylic acid ((S)-2-hydroxy-1,2-dimethyl-propyl)-amide]	3.05 nM
CCNC(=O)c1c[nH]c2ncc(Oc3ccc4c(c3)[C@H](NC(C)=O)CC4)nc12 [Example I-271, 2-((R)-3-Acetylamino-indan-5-yloxy)-5H-pyrrolo[2,3-b]pyrazine-7-carboxylic acid ethylamide]	1270 nM
CON(C)C(=O)c1ccc(-c2cnc3[nH]cc(C(=O)N[C@@H](C)C(C)(C)C)c3n2)s1 [Example I-196, 2-[5-(Methoxy-methyl-carbamoyl)-thiophen-2-yl]-5H-pyrrolo[2,3-b]pyrazine-7-carboxylic acid ((S)-1,2,2-trimethyl-propyl)-amide]	0.47 nM
CC(Cc1ccccn1)NC(=O)c1ccc(-c2cnc3[nH]cc(C(=O)N[C@@H](C)C(C)(C)C)c3n2)s1 (stereo partly drawn) [Example I-176, 2-[5-(1-Methyl-2-pyridin-2-yl-ethylcarbamoyl)-thiophen-2-yl]-5H-pyrrolo[2,3-b]pyrazine-7-carboxylic acid ((S)-1,2,2-trimethyl-propyl)-amide]	0.46 nM
O=C(NC(C1CCCCC1)C1CC1)c1c[nH]c2ncc(C3CC3)nc12 (stereo not drawn) [Example I-78, 2-Cyclopropyl-5H-pyrrolo[2,3-b]pyrazine-7-carboxylic acid (cyclohexyl-cyclopropyl-methyl)-amide]	78.6 nM
C#CCNC(=O)c1ccc(-c2cnc3[nH]cc(C(=O)N[C@@H](C)C(C)(C)C)c3n2)s1 [Example I-198, 2-(5-Prop-2-ynylcarbamoyl-thiophen-2-yl)-5H-pyrrolo[2,3-b]pyrazine-7-carboxylic acid ((S)-1,2,2-trimethyl-propyl)-amide]	0.54 nM
CC(C)NC(=O)c1c[nH]c2ncc(Oc3ccccc3Cl)nc12 [Example I-255, 2-(2-Chloro-phenoxy)-5H-pyrrolo[2,3-b]pyrazine-7-carboxylic acid isopropylamide]	382 nM
